Measurements: ChEMBL document CHEMBL1201862, “PubChem BioAssay data set” (2004)
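Growth conditions: 96-well plates. Treatment: test compound, 48 hours, 5 concentrations. Analysis: linear interpolation between bracketing concentrations; unreached endpoints set to highest concentration. Abbreviation: GI50, concentration required for 50% inhibition of growth.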 Calls of active or inactive are those of the source. Cut-off read from the data, not from the text of the source: active = GI50 up to about 1.1 µM and inactive = higher.

Assays:
Assay in all cases: NCI anticancer screen, dose series, 48 h
[1] = system: UO-31
[2] = system: SK-MEL-2
[3] = system: 786-0
[4] = system: SF-268
[5] = system: ACHN
[6] = system: HCT-15
[7] = system: OVCAR-5
[8] = system: SNB-19
[9] = system: DU-145
[10] = system: MOLT-4
[11] = system: M14
[12] = system: RXF 393
[13] = system: MDA-MB-435
[14] = system: Hs-578T
[15] = system: SF-539
[16] = system: CAKI-1
[17] = system: LOX IMVI
[18] = system: MDA-N
[19] = system: PC-3
[20] = system: KM12

For O=Cc1c(C(=O)O)[nH]c(=O)[nH]c1=O, the GI50 [1] was > 100 µM (inactive), the GI50 [2] was > 100 µM (inactive) and the GI50 [3] was > 100 µM (inactive). The GI50 [4] was > 100 µM (inactive), the GI50 [5] was > 100 µM (inactive) and the GI50 [6] was > 100 µM. For the same compound, the GI50 [7] was 39.8 µM (inactive), the GI50 [8] was > 100 µM (inactive) and the GI50 [9] was > 100 µM (inactive). For the same compound, the GI50 [10] was > 100 µM (inactive), the GI50 [11] was > 100 µM (inactive) and the GI50 [12] was > 100 µM (inactive). For the same compound, the GI50 [13] was > 100 µM (inactive), the GI50 [14] was > 100 µM (inactive) and the GI50 [15] was > 100 µM (inactive). For the same compound, the GI50 [16] was > 100 µM (inactive), the GI50 [17] was > 100 µM (inactive) and the GI50 [18] was > 100 µM (inactive). For the same compound, the GI50 [19] was > 100 µM (inactive) and the GI50 [20] was > 100 µM (inactive).
In the case of CCCCCCCCCCCCCC[S+](C)C, the GI50 [1] is reported as 3.07 µM (inactive), the GI50 [2] is reported as 2.02 µM (inactive) and the GI50 [3] is reported as 1.33 µM (inactive). For the same compound, the GI50 [4] was 1.51 µM (inactive), the GI50 [5] was 3.32 µM (inactive) and the GI50 [6] was 3.93 µM. The GI50 [7] was 2.88 µM (inactive), the GI50 [8] was 1.4 µM (inactive) and the GI50 [9] was 3.8 µM (inactive). The GI50 [10] was 1.23 µM (inactive), the GI50 [11] was 1.83 µM (inactive) and the GI50 [12] was 1.2 µM (inactive). The GI50 [13] was 1.91 µM (inactive), the GI50 [14] was 1.65 µM (inactive) and the GI50 [15] was 1.27 µM (inactive). The GI50 [16] was 2.61 µM (inactive), the GI50 [17] was 1.79 µM (inactive) and the GI50 [18] was 2.08 µM (inactive). The GI50 [19] was 1.24 µM (inactive) and the GI50 [20] was 1.57 µM (inactive).
In the case of CCN(CC)C1=Nc2ccccc2-n2ccnc2C1, the GI50 [1] is reported as > 100 µM (inactive), the GI50 [2] is reported as > 100 µM (inactive) and the GI50 [3] is reported as > 100 µM (inactive). The GI50 [4] was > 100 µM (inactive), the GI50 [5] was > 100 µM (inactive) and the GI50 [6] was > 100 µM. For the same compound, the GI50 [7] was > 100 µM (inactive), the GI50 [8] was > 100 µM (inactive) and the GI50 [9] was > 100 µM (inactive). For the same compound, the GI50 [10] was > 100 µM (inactive), the GI50 [11] was > 100 µM (inactive) and the GI50 [12] was > 100 µM (inactive). The GI50 [13] was > 100 µM (inactive), the GI50 [14] was > 100 µM (inactive) and the GI50 [15] was > 100 µM (inactive). For the same compound, the GI50 [16] was > 100 µM (inactive), the GI50 [17] was > 100 µM (inactive) and the GI50 [18] was > 100 µM (inactive). For the same compound, the GI50 [19] was > 100 µM (inactive) and the GI50 [20] was > 100 µM (inactive).
For CCCCc1c(O)nc(Nc2nc3ccccc3[nH]2)[nH]c1=O, the GI50 [2] was > 100 µM (inactive), the GI50 [3] was > 100 µM (inactive) and the GI50 [4] was 98.9 µM (inactive). The GI50 [5] was > 100 µM (inactive), the GI50 [6] was > 100 µM and the GI50 [7] was > 100 µM (inactive). For the same compound, the GI50 [8] was > 100 µM (inactive), the GI50 [9] was > 100 µM (inactive) and the GI50 [10] was > 100 µM (inactive). The GI50 [11] was > 100 µM (inactive), the GI50 [12] was > 100 µM (inactive) and the GI50 [13] was > 100 µM (inactive). The GI50 [14] was 23.3 µM (inactive), the GI50 [15] was > 100 µM (inactive) and the GI50 [16] was > 100 µM (inactive). The GI50 [17] was > 100 µM (inactive), the GI50 [18] was > 100 µM (inactive) and the GI50 [19] was > 100 µM (inactive). The GI50 [20] was > 100 µM (inactive).
For CCOC(=O)C(=CNc1ccc(S(N)(=O)=O)cc1)C(=O)OCC, the GI50 [1] was > 100 µM (inactive), the GI50 [2] was > 100 µM (inactive) and the GI50 [3] was > 100 µM (inactive). The GI50 [4] was > 100 µM (inactive), the GI50 [5] was > 100 µM (inactive) and the GI50 [6] was > 100 µM. The GI50 [7] was > 100 µM (inactive), the GI50 [8] was > 100 µM (inactive) and the GI50 [9] was > 100 µM (inactive). For the same compound, the GI50 [10] was > 100 µM (inactive), the GI50 [11] was > 100 µM (inactive) and the GI50 [12] was > 100 µM (inactive). For the same compound, the GI50 [13] was > 100 µM (inactive), the GI50 [14] was > 100 µM (inactive) and the GI50 [15] was > 100 µM (inactive). For the same compound, the GI50 [16] was > 100 µM (inactive), the GI50 [17] was > 100 µM (inactive) and the GI50 [18] was > 100 µM (inactive). The GI50 [19] was > 100 µM (inactive).
With Cc1cc(S(=O)(=O)N/C(=N/N)NCCc2ccccc2)c(S)cc1Cl the GI50 [1] was 27.6 µM (inactive), the GI50 [2] was 38.2 µM (inactive) and the GI50 [3] was 30.5 µM (inactive). The GI50 [4] was 28.7 µM (inactive), the GI50 [6] was 19.2 µM and the GI50 [7] was 19.5 µM (inactive). For the same compound, the GI50 [8] was 18.1 µM (inactive), the GI50 [9] was 18.5 µM (inactive) and the GI50 [10] was 17.7 µM (inactive). The GI50 [11] was 24.1 µM (inactive), the GI50 [12] was 21.7 µM (inactive) and the GI50 [13] was 22 µM (inactive). The GI50 [14] was 25.5 µM (inactive), the GI50 [15] was 24 µM (inactive) and the GI50 [16] was 26.4 µM (inactive). The GI50 [17] was 29.6 µM (inactive), the GI50 [18] was > 10 µM (inactive) and the GI50 [19] was 30.1 µM (inactive). For the same compound, the GI50 [20] was 23.4 µM (inactive).
For CC(=O)N(C(C)=O)c1ncc(-n2nc(-c3ccccc3)cc2-c2ccccc2)c(-c2ccccc2)n1, the GI50 [2] was > 10 µM (inactive), the GI50 [3] was > 10 µM (inactive) and the GI50 [4] was > 10 µM (inactive). For the same compound, the GI50 [5] was > 10 µM (inactive), the GI50 [6] was 8.91 µM and the GI50 [7] was > 10 µM (inactive). The GI50 [8] was > 10 µM (inactive), the GI50 [9] was > 10 µM (inactive) and the GI50 [10] was 5.22 µM (inactive). The GI50 [11] was > 10 µM (inactive), the GI50 [12] was > 10 µM (inactive) and the GI50 [13] was 3.52 µM (inactive). For the same compound, the GI50 [14] was > 10 µM (inactive), the GI50 [15] was > 10 µM (inactive) and the GI50 [16] was > 10 µM (inactive). For the same compound, the GI50 [17] was 6.73 µM (inactive), the GI50 [18] was 3.15 µM (inactive) and the GI50 [19] was > 10 µM (inactive). The GI50 [20] was 6.17 µM (inactive).
